Patent US9708334B2, “Substituted 2,4,5,6-tetrahydropyrrolo[3,4-c]pyrazole and 4,5,6,7-tetrahydro-2H-pyrazolo[4,3-c]pyridine compounds as GlyT1 inhibitors” (DART NEUROSCIENCE (CAYMAN) LTD., priority 2014, dated 2017)

Target: T1, GlyT1 (Homo sapiens, UniProt P48067)
T1 construct: expressed in transfected cells
T1 sequence (P48067 1-706): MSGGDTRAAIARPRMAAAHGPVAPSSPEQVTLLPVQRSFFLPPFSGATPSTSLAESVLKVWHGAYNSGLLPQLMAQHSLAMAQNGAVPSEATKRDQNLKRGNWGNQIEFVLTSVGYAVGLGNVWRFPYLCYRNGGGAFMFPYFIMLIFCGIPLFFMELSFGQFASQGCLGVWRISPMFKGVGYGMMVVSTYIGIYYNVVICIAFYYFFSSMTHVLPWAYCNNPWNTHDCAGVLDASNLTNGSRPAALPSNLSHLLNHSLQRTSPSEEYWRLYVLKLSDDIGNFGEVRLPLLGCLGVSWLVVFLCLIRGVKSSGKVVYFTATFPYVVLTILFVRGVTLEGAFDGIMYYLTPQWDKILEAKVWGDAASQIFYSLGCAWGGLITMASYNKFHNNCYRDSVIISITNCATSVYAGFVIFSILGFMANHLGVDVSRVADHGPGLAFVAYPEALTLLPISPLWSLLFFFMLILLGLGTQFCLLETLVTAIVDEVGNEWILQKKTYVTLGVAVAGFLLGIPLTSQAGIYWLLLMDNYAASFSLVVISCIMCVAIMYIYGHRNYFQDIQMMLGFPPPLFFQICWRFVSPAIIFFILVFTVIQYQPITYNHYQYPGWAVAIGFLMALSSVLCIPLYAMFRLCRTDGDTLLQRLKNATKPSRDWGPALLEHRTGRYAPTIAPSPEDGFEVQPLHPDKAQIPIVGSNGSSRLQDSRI
Assay: Glycine Transporter 1 (GlyT1) uptake assay, scintillation proximity assay of [14C]-glycine uptake
Format: cell-based
Conditions: SPA, four parameter logistic fit, read-out: GlyT1 (pIC50) (converted)
How it was run: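 IC50 values derive from four-parameter logistic curves fitted to dose-response data. Uptake of [14C]-glycine measured in scintillation proximity format.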

SMILES | IC50 [nM]
COc1c(C#N)ccc(OC(C)C)c1C(=O)N1Cc2cn(-c3ccc(F)c(C)n3)nc2C1 [Example 535, 3-[2-(5-Fluoro-6-methylpyridin-2-yl)-2H 4H 5H 6H-pyrrolo[3,4-c]pyrazole-5-carbonyl]-2-methoxy-4-(propan-2-yloxy)benzonitrile] | < 100
COc1c(C#N)ccc(OCC2(C)COC2)c1C(=O)N1Cc2cn(-c3ccc(F)c(C)n3)nc2C1 [Example 536, 3-[2-(5-Fluoro-6-methylpyridin-2-yl)-2H 4H 5H 6H-pyrrolo[3,4-c]pyrazole-5-carbonyl]-2-methoxy-4-[(3-methyloxetan-3-yl)methoxy]benzonitrile] | 100 to 1000
COc1c(C#N)ccc(OC2COC2)c1C(=O)N1Cc2cn(-c3ccc(F)c(C)n3)nc2C1 [Example 537, 3-[2-(5-Fluoro-6-methylpyridin-2-yl)-2H 4H 5H 6H-pyrrolo[3,4-c]pyrazole-5-carbonyl]-2-methoxy-4-(oxetan-3-yloxy)benzonitrile] | 100 to 1000
Cc1cc(-n2cc3c(n2)CN(C(=O)c2cc(C#N)ccc2OCC2(C)COC2)C3)ccn1 [Example 538, 4-[(3-Methyloxetan-3-yl)methoxy]-3-[2-(2-methylpyridin-4-yl)-2H 4H 5H 6H-pyrrolo[3,4-c]pyrazole-5-carbonyl]benzonitrile] | 1000 to 10000
Cc1cc(-n2cc3c(n2)CN(C(=O)c2cc(C#N)ccc2OCC(F)(F)F)C3)ccn1 [Example 539, 3-[2-(2-Methylpyridin-4-yl)-2H 4H 5H 6H-pyrrolo[3,4-c]pyrazole-5-carbonyl]-4-(2 2 2-trifluoroethoxy)benzonitrile] | 100 to 1000
Cc1cc(-n2cc3c(n2)CN(C(=O)c2cc(C#N)ccc2OCC2CC2)C3)ccn1 [Example 540, 4-(Cyclopropylmethoxy)-3-[2-(2-methylpyridin-4-yl)-2H 4H 5H 6H-pyrrolo[3,4-c]pyrazole-5-carbonyl]benzonitrile] | < 100
Cc1cc(-n2cc3c(n2)CN(C(=O)c2cc(C#N)ccc2OC(C)(C)C(F)(F)F)C3)ccn1 [Example 542, 3-[2-(2-Methylpyridin-4-yl)-2H 4H 5H 6H-pyrrolo[3,4-c]pyrazole-5-carbonyl]-4-[(1 1 1-trifluoro-2-methylpropan-2-yl)oxy]benzonitrile] | < 100
CCc1cc(-n2cc3c(n2)CN(C(=O)c2cc(C#N)ccc2OCC(F)(F)F)C3)ccn1 [Example 543, 3-[2-(2-Ethylpyridin-4-yl)-2H 4H 5H 6H-pyrrolo[3,4-c]pyrazole-5-carbonyl]-4-(2 2 2-trifluoroethoxy)benzonitrile] | 100 to 1000
CCc1cc(-n2cc3c(n2)CN(C(=O)c2cc(C#N)ccc2OCC2CC2)C3)ccn1 [Example 544, 4-(Cyclopropylmethoxy)-3-[2-(2-ethylpyridin-4-yl)-2H 4H 5H 6H-pyrrolo[3,4-c]pyrazole-5-carbonyl]benzonitrile] | 100 to 1000
CCc1cc(-n2cc3c(n2)CN(C(=O)c2cc(C#N)ccc2OCC(F)F)C3)ccn1 [Example 545, 4-(2 2-Difluoroethoxy)-3-[2-(2-ethylpyridin-4-yl)-2H 4H 5H 6H-pyrrolo[3,4-c]pyrazole-5-carbonyl]benzonitrile] | 100 to 1000
CCc1cc(-n2cc3c(n2)CN(C(=O)c2cc(C#N)ccc2N2CCC(F)(F)CC2)C3)ccn1 [Example 546, 4-(4 4-Difluoropiperidin-1-yl)-3-[2-(2-ethylpyridin-4-yl)-2H 4H 5H 6H-pyrrolo[3,4-c]pyrazole-5-carbonyl]benzonitrile] | < 100
CS(=O)(=O)c1ccc(-c2ccc(C(F)(F)F)nc2)c(C(=O)N2Cc3cn(-c4ccccc4F)nc3C2)c1 [Example 547, 5-{2-[2-(2-Fluorophenyl)-2H 4H 5H 6H-pyrrolo[3,4-c]pyrazole-5-carbonyl]-4-methanesulfonylphenyl}-2-(trifluoromethyl)pyridine] | 100 to 1000
CS(=O)(=O)c1ccc(-c2cncc(F)c2)c(C(=O)N2Cc3cn(-c4ccc(F)cn4)nc3C2)c1 [Example 548, 5-Fluoro-2-{5-[2-(5-fluoropyridin-3-yl)-5-methanesulfonylbenzoyl]-2H 4H 5H 6H-pyrrolo[3,4-c]pyrazol-2-yl}pyridine] | 1000 to 10000
